Experimental data as given in paper PMC11441021, “Novel hybrids of 1,2,3-triazole-benzoxazole: design, synthesis, and assessment of DprE1 enzyme inhibitors using fluorometric assay and computational analysis” (Journal of Enzyme Inhibition and Medicinal Chemistry, 2024).
≈ marks a conversion by molar mass, not a printed value. Where “and” joins values, the source holds several entries; their conditions need not be identical. Equal entries are not always repeated.

Legend:
[1] = system: mouse fibroblast 3T3 cells; assay: MTT cytotoxicity assay on mouse fibroblast 3T3 cells; assay type: cell-based; conditions: for IC50: NIH3T3, MTT assay, read-out: 3T3 cell IC50; for Selectivity index: IC50 (μg/mL)/MIC (μg/mL), 3T3 cells vs Mtb H37Rv
[2] = system: M. tuberculosis H37Rv strain; assay: Resazurin microtiter assay (REMA), MIC against Mtb H37Rv; assay type: cell-based, Mycobacterium tuberculosis; conditions: MTB H37Rv (ATCC 27294), 7 days incubation, text calls it MIC; for MIC50: Mycobacterium tuberculosis, ATCC 27294 / H37Rv, 168 h
[3] = target: DprE1 (Mycobacterium tuberculosis, UniProt P9WJF1); assay: DprE1 inhibition (resazurin redox indicator, fluorometric) assay; assay type: biochemical; conditions: purified DprE1, GGPR substrate
Sequence of DprE1 (P9WJF1 whole entry): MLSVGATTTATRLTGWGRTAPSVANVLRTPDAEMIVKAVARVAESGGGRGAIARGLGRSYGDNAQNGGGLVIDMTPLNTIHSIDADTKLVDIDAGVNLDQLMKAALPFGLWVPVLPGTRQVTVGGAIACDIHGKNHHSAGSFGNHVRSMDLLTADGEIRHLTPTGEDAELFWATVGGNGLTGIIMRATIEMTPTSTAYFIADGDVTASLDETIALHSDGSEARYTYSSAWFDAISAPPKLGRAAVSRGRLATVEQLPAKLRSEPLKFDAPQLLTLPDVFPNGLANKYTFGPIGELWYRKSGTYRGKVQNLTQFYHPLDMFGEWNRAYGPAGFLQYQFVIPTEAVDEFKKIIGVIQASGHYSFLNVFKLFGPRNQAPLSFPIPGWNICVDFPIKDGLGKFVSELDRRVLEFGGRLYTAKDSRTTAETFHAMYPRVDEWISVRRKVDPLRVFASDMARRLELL
Method: For the identification and validation of the biological target for this new series of 1,2,3-triazole-linked benzoxazoles, compounds displaying antimycobacterial activity below 6 μg/mL and showcasing diverse side chains were assessed against the purified DprE1 protein (Table 1). The assessment of the compounds’ ability to inhibit DprE1 activity was conducted through an in-vitro assay. This involved purified DprE1 protein, geranylgeranyl-phosphoryl-β-d-ribose (GGPR) substrate, and resazurin as a redox indicator. The synthesised molecules were tested for their impact on DprE1 activity within this experimental setup. The initial rates of activity, characterised by increasing concentrations of the compound, were measured and compared to the control compound TCA-1. The half maximal inhibitory concentration (IC50) was then calculated for each synthesised compound, quantitatively assessing their inhibitory effect. […] The promising results prompted us to delve deeper into these compounds through initial assessments of their druggability profiles and validation via computational studies. This approach aims to enhance our understanding of the structural features involved in the inhibition mechanism of the DprE1 enzyme, utilising docking and molecular dynamics (MD) simulation studies.
A redox indicator assay was conducted following a previously described protocol, utilising the reduction of resazurin to its fluorescent form, resorufin. In this assay, the DprE1 cofactor FAD undergoes reduction to FADH2, while the C-2 hydroxyl group of the substrate GGPR is oxidised to form a keto-intermediate known as geranylgeranylphosphoryl-β-d-2′-keto-erythro-penta-furanose (GGPX)[11]^,[40]. The inhibition of DprE1 was assessed using an activity assay, with the half maximal inhibitory concentration (IC50) determined for each tested compound. Intermediate plates of compounds were prepared in V-bottomed 96-well plates, where the compounds were serially diluted twofold in DMSO. Subsequently, 1 µL of each compound dilution was pipetted in triplicate into Greiner black-bottomed 384 plates. The master mix (19 µL), comprising 5 µM DprE1, 50 mM Hepes pH 7.5, 100 mM NaCl, and 100 µM resazurin, was added to the compounds in the plate. The assay was initiated with 5 µL of 1 mM GGPR using the pump on the POLARstar Omega plate reader (BMG Labtech). Emission was measured at 590 nm with excitation at 530 nm at 37 °C[41]^. IC50 values were calculated using Prism GraphPad, fitting the data to a four-parameter dose–response curve. The initial rates of activity were used for the calculations, and fluorescence units were converted to µM resazurin reduced by referencing a resorufin standard curve.

[4] = Mus musculus, mouse fibroblast 3T3 cells, cytotoxicity

| SMILES | IC50 [1, 4] | MIC50 [2] | IC50 [3] | melting point | further results |
| --- | --- | --- | --- | --- | --- |
| O=c1[nH]cc(F)c(=O)[nH]1 [5-Fluorouracil, reference compound] | 53.7 µg/mL (≈ 413 µM) |  |  |  | inhibition at 50 µg/mL ([1]; Mus musculus, NIH3T3, MTT assay, 50 μg/mL, read-out: percentage inhibition of 3T3 cells): > 42% |
| O=C(CC(=O)Nc1ccccc1)Cn1cc(CSc2nc3ccccc3o2)nn1 [BOK-1, 4–(4-((Benzo[d]oxazol-2-ylthio)methyl)-1H-1,2,3-triazol-1-yl)-3-oxo-N-phenyl butanamide] | 118 µg/mL (≈ 291 µM) | ≤ 6.25 µg/mL | 5.2 ± 0.6 µM |  | Selectivity index [1]: 37.07 |
| Cc1ccccc1NC(=O)CC(=O)Cn1cc(CSc2nc3ccccc3o2)nn1 [BOK-2, 4–(4-((Benzo[d]oxazol-2-ylthio)methyl)-1H-1,2,3-triazol-1-yl)-3-oxo-N-(o-tolyl) butanamide] | 104 µg/mL (≈ 247 µM) |  | 2 µM and 2.2 µM |  | Selectivity index [1]: 57.77; 3T3 cell IC50 ([1]; MTT assay, mouse fibroblast 3T3 cells, cytotoxicity): 103.92 µg/mL |
| O=C(CC(=O)Nc1ccccc1F)Cn1cc(CSc2nc3ccccc3o2)nn1 [BOK-3, 4–(4-((Benzo[d]oxazol-2-ylthio)methyl)-1H-1,2,3-triazol-1-yl)-N-(2-fluorophenyl)-3-oxobutanamide] | 112 µg/mL (≈ 263 µM) |  | 3 ± 0.6 µM |  | Selectivity index [1]: 46.75 |
| O=C(CC(=O)Nc1cccc(Cl)c1)Cn1cc(CSc2nc3ccccc3o2)nn1 [BOK-4, 4–(4-((Benzo[d]oxazol-2-ylthio)methyl)-1H-1,2,3-triazol-1-yl)-N-(3-chlorophenyl)-3-oxobutanamide] |  | 3.7 µg/mL (≈ 8.37 µM) |  | 165 to 169 °C | Mtb H37Rv MIC50 [2]: 6.9 µg/mL |
| Cc1ccc(NC(=O)CC(=O)Cn2cc(CSc3nc4ccccc4o3)nn2)cc1 [BOK-5, 4–(4-((Benzo[d]oxazol-2-ylthio)methyl)-1H-1,2,3-triazol-1-yl)-3-oxo-N-(p-tolyl) butanamide] |  | 11.6 µg/mL (≈ 27.5 µM) |  | 175 to 179 °C |  |
| O=C(CC(=O)Nc1ccc(C(F)(F)F)cc1)Cn1cc(CSc2nc3ccccc3o2)nn1 [BOK-6, 4–(4-((Benzo[d]oxazol-2-ylthio)methyl)-1H-1,2,3-triazol-1-yl)-3-oxo-N-(4-(trifluoromethyl)phenyl)butanamide] |  | 39.6 µg/mL (≈ 83.3 µM) |  | 185 to 189 °C |  |
| O=C(CC(=O)Nc1ccc(Cl)cc1)Cn1cc(CSc2nc3ccccc3o2)nn1 [BOK-7, 4–(4-((Benzo[d]oxazol-2-ylthio)methyl)-1H-1,2,3-triazol-1-yl)-N-(4-chlorophenyl)-3-oxo butanamide] |  | 6.9 µg/mL (≈ 15.6 µM) |  | 171 to 174 °C | Mtb H37Rv MIC50 [2]: 6.7 µg/mL |
| O=C(CC(=O)Nc1ccc(Br)cc1)Cn1cc(CSc2nc3ccccc3o2)nn1 [BOK-8, 4–(4-((Benzo[d]oxazol-2-ylthio)methyl)-1H-1,2,3-triazol-1-yl)-N-(4-bromophenyl)-3-oxo butanamide] |  | 44.1 µg/mL (≈ 90.7 µM) |  | 210 to 214 °C |  |
| COc1ccc(NC(=O)CC(=O)Cn2cc(CSc3nc4ccccc4o3)nn2)cc1 [BOK-9, 4–(4-((Benzo[d]oxazol-2-ylthio)methyl)-1H-1,2,3-triazol-1-yl)-N-(4-methoxyphenyl)-3-oxo butanamide] |  | 10.6 µg/mL (≈ 24.2 µM) |  | 169 to 172 °C |  |
| CCOc1ccc(NC(=O)CC(=O)Cn2cc(CSc3nc4ccccc4o3)nn2)cc1 [BOK-10, 4–(4-((Benzo[d]oxazol-2-ylthio)methyl)-1H-1,2,3-triazol-1-yl)-N-(4-ethoxyphenyl)-3-oxo butanamide] |  | 42.6 µg/mL (≈ 94.4 µM) |  | 175 to 179 °C |  |
| O=C(Cn1cc(CSc2nc3ccccc3o2)nn1)c1ccccc1 [BOP-1, 2–(4-((Benzo[d]oxazol-2-ylthio)methyl)-1H-1,2,3-triazol-1-yl)-1-phenylethan-1-one] | 51.7 µg/mL (≈ 148 µM) | ≤ 6.25 µg/mL | 3.3 ± 1 µM |  | Selectivity index [1]: 8.76 |
| COc1ccc(C(=O)Cn2cc(CSc3nc4ccccc4o3)nn2)cc1 [BOP-2, 2–(4-((Benzo[d]oxazol-2-ylthio)methyl)-1H-1,2,3-triazol-1-yl)-1–(4-methoxyphenyl)ethan-1-one] |  | 19.1 µg/mL (≈ 50.1 µM) |  | 148 to 152 °C |  |
| Cc1ccc(C(=O)Cn2cc(CSc3nc4ccccc4o3)nn2)cc1 [BOP-3, 2–(4-((Benzo[d]oxazol-2-ylthio)methyl)-1H-1,2,3-triazol-1-yl)-1-(p-tolyl)ethan-1-one] |  | 20.5 µg/mL (≈ 56.3 µM) |  | 142 to 146 °C |  |
| O=C(Cn1cc(CSc2nc3ccccc3o2)nn1)c1ccc(F)cc1 [BOP-4, 2–(4-((Benzo[d]oxazol-2-ylthio)methyl)-1H-1,2,3-triazol-1-yl)-1–(4-fluorophenyl)ethan-1-one] | 55.8 µg/mL (≈ 151 µM) | ≤ 6.25 µg/mL | 3.1 ± 0.7 µM |  | Selectivity index [1]: 11.62 |
| O=C(Cn1cc(CSc2nc3ccccc3o2)nn1)c1ccc([N+](=O)[O-])cc1 [BOP-5, 2–(4-((Benzo[d]oxazol-2-ylthio)methyl)-1H-1,2,3-triazol-1-yl)-1–(4-nitrophenyl)ethan-1-one] |  | 32.3 µg/mL (≈ 81.7 µM) |  | 142 to 146 °C |  |
| CO[C@H]1/C=C/O[C@@]2(C)Oc3c(C)c(O)c4c(O)c(c(/C=N/N5CCN(C)CC5)c(O)c4c3C2=O)NC(=O)/C(C)=C\C=C\[C@H](C)[C@H](O)[C@@H](C)[C@@H](O)[C@@H](C)[C@H](OC(C)=O)[C@@H]1C [Rifampicin, reference compound] |  | < 0.004 µg/mL |  |  |  |
| CCOC(=O)NC(=O)c1ccsc1NC(=O)c1nc2ccccc2s1 [TCA-1, reference compound] |  |  | 3 ± 0.2 µM |  |  |
